Reference: the CheMixHub viscosity set

Test: xn = mol fraction of the nth substance listed

CCCCCC(=O)[O-].[Na+] + CCCCCCCCCC(=O)O
100 kPa, x1 = 0.3
Details | viscosity [mPa·s]
293.15 K | 285.4
298.15 K | 213.6
303.15 K | 162.3
308.15 K | 125.7
313.15 K | 98.9
318.15 K | 79
323.15 K | 63.9

CCCCCCCCC + CCCCCCCCCCCC
298.15 K, 101.33 kPa
Details | viscosity [mPa·s]
x1 = 0.0957 | 1.273
x1 = 0.1995 | 1.187
x1 = 0.3049 | 1.111
x1 = 0.4056 | 1.022
x1 = 0.5088 | 0.969
x1 = 0.6103 | 0.8955
x1 = 0.7039 | 0.8282
x1 = 0.8049 | 0.7721
x1 = 0.9023 | 0.7118

CCCCCCCCC + CCCCCCCCCCCCCCCC
298.15 K, 101.33 kPa
Details | viscosity [mPa·s]
x1 = 0.1105 | 2.698
x1 = 0.2002 | 2.416
x1 = 0.3173 | 2.072
x1 = 0.4054 | 1.832
x1 = 0.5056 | 1.571
x1 = 0.5795 | 1.404
x1 = 0.7077 | 1.152
x1 = 0.8024 | 0.9655
x1 = 0.8988 | 0.8177

CCCCCCCCc1ccccc1 + CCCCCCCCCCCCCCCC
viscosity [mPa·s], 102 kPa
Details | x1 = 0.1177 | x1 = 0.2297 | x1 = 0.3377 | x1 = 0.4423 | x1 = 0.5431 | x1 = 0.6411 | x1 = 0.7351 | x1 = 0.8263 | x1 = 0.9146
293.15 K | 3.28 | 3.16 | 3.05 | 2.94 | 2.85 | 2.78 | 2.71 | 2.65 | 2.62
303.15 K | 2.61 | 2.52 | 2.44 | 2.36 | 2.3 | 2.25 | 2.19 | 2.15 | 2.12
313.15 K | 2.13 | 2.06 | 2 | 1.94 | 1.89 | 1.86 | 1.81 | 1.78 | 1.76
323.15 K | 1.77 | 1.72 | 1.67 | 1.63 | 1.59 | 1.56 | 1.52 | 1.5 | 1.48

CC(=O)c1ccccc1 + CCCCCO
298.15 K, 101 kPa
Details | viscosity [mPa·s]
x1 = 0.0754 | 3.104
x1 = 0.155 | 3.016
x1 = 0.2392 | 2.918
x1 = 0.3285 | 2.801
x1 = 0.4232 | 2.657
x1 = 0.524 | 2.498
x1 = 0.6313 | 2.31
x1 = 0.7459 | 2.102
x1 = 0.8685 | 1.898

C1COCO1 + CCCCO
viscosity [mPa·s], 101 kPa
Details | 298.15 K | 303.15 K | 313.15 K
x1 = 0.1001 | – | 1.74 | –
x1 = 0.1022 | 1.884 | – | 1.354
x1 = 0.1981 | 1.493 | – | 1.109
x1 = 0.2001 | – | 1.373 | –
x1 = 0.3001 | – | 1.113 | –
x1 = 0.3055 | 1.201 | – | 0.9166
x1 = 0.4001 | – | 0.9587 | –
x1 = 0.4054 | 1.014 | – | 0.7915
x1 = 0.5001 | – | 0.8419 | –
x1 = 0.5008 | 0.8912 | – | 0.7023
x1 = 0.6001 | – | 0.7305 | –
x1 = 0.6035 | 0.7757 | – | 0.6292
x1 = 0.7001 | – | 0.6582 | –
x1 = 0.7024 | 0.6998 | – | 0.5763
x1 = 0.8001 | – | 0.6192 | –
x1 = 0.8009 | 0.6441 | – | 0.5372
x1 = 0.9001 | – | 0.5873 | –
x1 = 0.9002 | 0.6073 | – | 0.5116

CN(C)P(=O)(N(C)C)N(C)C + CCCCO
303.15 K, 101.3 kPa
Details | viscosity [mPa·s]
x1 = 0.0872 | 2.283
x1 = 0.1988 | 2.312
x1 = 0.2977 | 2.351
x1 = 0.3888 | 2.404
x1 = 0.4941 | 2.487
x1 = 0.5894 | 2.567
x1 = 0.6891 | 2.655
x1 = 0.7954 | 2.745
x1 = 0.8991 | 2.834

CC(=O)c1ccccc1 + CCCCOC(C)=O
viscosity [mPa·s], 101 kPa
Details | x2 = 0.0904 | x2 = 0.1786 | x2 = 0.2746 | x2 = 0.37 | x2 = 0.4671 | x2 = 0.5675 | x2 = 0.672 | x2 = 0.7729 | x2 = 0.8848
298.15 K | 1.557 | 1.452 | 1.341 | 1.232 | 1.129 | 1.028 | 0.933 | 0.848 | 0.763
303.15 K | 1.405 | 1.312 | 1.212 | 1.115 | 1.024 | 0.934 | 0.849 | 0.772 | 0.696
308.15 K | 1.29 | 1.207 | 1.119 | 1.034 | 0.95 | 0.87 | 0.792 | 0.724 | 0.655
313.15 K | 1.188 | 1.112 | 1.032 | 0.954 | 0.877 | 0.804 | 0.734 | 0.671 | 0.608

C1COCO1 + CCCCOCCO
298.15 K, 101 kPa
Details | viscosity [mPa·s]
x1 = 0.1506 | 2.2
x1 = 0.2851 | 1.773
x1 = 0.4061 | 1.465
x1 = 0.5154 | 1.229
x1 = 0.6147 | 1.053
x1 = 0.7053 | 0.9156
x1 = 0.7882 | 0.8012
x1 = 0.8645 | 0.7116
x1 = 0.9349 | 0.6419

CCCOCC(C)O (stereo unspecified) + CCCNCCC
viscosity [mPa·s], 100 kPa
Details | 298.15 K | 303.15 K | 308.15 K
x1 = 0.0501 | 0.5507 | 0.5133 | 0.4872
x1 = 0.1003 | 0.6065 | 0.556 | 0.5257
x1 = 0.1502 | 0.6545 | 0.6056 | 0.571
x1 = 0.1999 | 0.7308 | 0.6597 | 0.6196
x1 = 0.3 | 0.8816 | 0.7957 | 0.7427
x1 = 0.4 | 1.089 | 0.969 | 0.894
x1 = 0.4999 | 1.294 | 1.144 | 1.052
x1 = 0.6 | 1.558 | 1.351 | 1.228
x1 = 0.6999 | 1.823 | 1.571 | 1.415
x1 = 0.7997 | 2.079 | 1.784 | 1.603
x1 = 0.8999 | 2.275 | 1.945 | 1.748
x1 = 0.9498 | 2.357 | 2.016 | 1.815

C1COCO1 + CCCO
303.15 K, 101 kPa
Details | viscosity [mPa·s]
x1 = 0.08269 | 1.258
x1 = 0.1686 | 1.067
x1 = 0.258 | 0.9345
x1 = 0.351 | 0.8208
x1 = 0.4479 | 0.7339
x1 = 0.5489 | 0.6454
x1 = 0.6543 | 0.592
x1 = 0.7644 | 0.5684
x1 = 0.8795 | 0.5564

CN(C)P(=O)(N(C)C)N(C)C + CCCO
303.15 K, 101.3 kPa
Details | viscosity [mPa·s]
x1 = 0.0989 | 1.896
x1 = 0.1996 | 1.991
x1 = 0.3022 | 2.102
x1 = 0.4027 | 2.217
x1 = 0.4525 | 2.272
x1 = 0.598 | 2.444
x1 = 0.6994 | 2.569
x1 = 0.7809 | 2.666
x1 = 0.8672 | 2.766

CCCOCC(C)O (stereo unspecified) + CCN(CC)CC
viscosity [mPa·s], 100 kPa
Details | 298.15 K | 303.15 K | 308.15 K
x1 = 0.0502 | 0.4177 | 0.3933 | 0.3699
x1 = 0.1001 | 0.4846 | 0.4496 | 0.4206
x1 = 0.1501 | 0.5523 | 0.5096 | 0.476
x1 = 0.2016 | 0.6258 | 0.5726 | 0.5332
x1 = 0.3 | 0.7805 | 0.7042 | 0.6523
x1 = 0.4 | 0.9537 | 0.8515 | 0.7863
x1 = 0.5 | 1.153 | 1.017 | 0.9326
x1 = 0.5998 | 1.382 | 1.207 | 1.102
x1 = 0.6999 | 1.625 | 1.406 | 1.281
x1 = 0.7996 | 1.887 | 1.629 | 1.474
x1 = 0.8998 | 2.169 | 1.87 | 1.682
x1 = 0.9499 | 2.304 | 1.973 | 1.775
